What all share (test): SILAC proteomics / in-gel fluorescence, competition of probe 13-t labeling by 3a
In assay [1] the target is T1, proteins of HEK293T cells transiently overexpressing caspase-6 (Homo sapiens, UniProt O00410).
T1 sequence (O00410 1-1097): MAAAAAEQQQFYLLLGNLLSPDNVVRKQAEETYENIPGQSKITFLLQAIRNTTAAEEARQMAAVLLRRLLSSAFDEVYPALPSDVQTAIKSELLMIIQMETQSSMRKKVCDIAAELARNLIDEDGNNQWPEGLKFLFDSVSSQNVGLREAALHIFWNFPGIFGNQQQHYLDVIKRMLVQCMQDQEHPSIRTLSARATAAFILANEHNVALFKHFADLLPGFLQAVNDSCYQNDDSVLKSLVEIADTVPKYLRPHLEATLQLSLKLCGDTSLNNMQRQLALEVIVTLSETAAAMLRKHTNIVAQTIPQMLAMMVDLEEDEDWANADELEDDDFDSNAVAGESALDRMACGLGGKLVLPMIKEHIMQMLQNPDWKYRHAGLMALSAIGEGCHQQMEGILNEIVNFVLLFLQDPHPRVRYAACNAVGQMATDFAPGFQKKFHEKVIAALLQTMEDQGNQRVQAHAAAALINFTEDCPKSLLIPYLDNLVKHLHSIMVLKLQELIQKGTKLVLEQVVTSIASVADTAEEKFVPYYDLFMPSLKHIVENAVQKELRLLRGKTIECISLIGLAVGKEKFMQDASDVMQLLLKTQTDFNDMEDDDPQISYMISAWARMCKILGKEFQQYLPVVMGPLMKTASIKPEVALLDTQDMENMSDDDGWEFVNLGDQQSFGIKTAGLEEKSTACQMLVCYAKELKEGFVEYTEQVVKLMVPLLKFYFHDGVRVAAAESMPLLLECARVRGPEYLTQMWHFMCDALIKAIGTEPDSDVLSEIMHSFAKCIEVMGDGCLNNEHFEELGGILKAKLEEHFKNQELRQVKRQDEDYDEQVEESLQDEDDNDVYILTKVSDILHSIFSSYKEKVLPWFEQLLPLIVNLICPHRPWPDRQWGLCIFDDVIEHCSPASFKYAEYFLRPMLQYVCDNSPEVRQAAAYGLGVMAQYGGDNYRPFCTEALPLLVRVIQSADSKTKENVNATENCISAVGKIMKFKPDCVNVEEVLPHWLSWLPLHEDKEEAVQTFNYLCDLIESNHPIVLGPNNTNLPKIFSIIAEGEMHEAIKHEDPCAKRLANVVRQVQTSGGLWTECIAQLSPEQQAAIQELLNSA

The target of assay [2] is proteins of HEK293T cells transiently overexpressing caspase-6 (Homo sapiens, UniProt Q13151). The following applies: Comp; protein HNRNPA0 Q13151.
Sequence of proteins of HEK293T cells transiently overexpressing caspase-6 (Homo sapiens, UniProt Q13151) (Q13151 whole entry): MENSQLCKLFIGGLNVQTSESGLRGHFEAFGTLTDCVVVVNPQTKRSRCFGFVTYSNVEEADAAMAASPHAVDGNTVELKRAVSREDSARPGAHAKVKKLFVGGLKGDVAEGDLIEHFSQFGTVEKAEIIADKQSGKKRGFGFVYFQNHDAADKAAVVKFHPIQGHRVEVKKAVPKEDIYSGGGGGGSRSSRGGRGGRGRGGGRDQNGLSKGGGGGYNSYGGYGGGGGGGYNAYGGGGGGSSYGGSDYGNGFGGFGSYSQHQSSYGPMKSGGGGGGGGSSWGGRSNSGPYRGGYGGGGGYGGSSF
Assay [3] addresses proteins of HEK293T cells transiently overexpressing caspase-6 (Homo sapiens, UniProt P07437). The following applies: Comp; protein TUBB P07437.
In assay [4] the target is proteins of HEK293T cells transiently overexpressing caspase-6 (Homo sapiens, UniProt Q04637). The following applies: Comp; protein EIF4G1 Q04637.
Sequence of proteins of HEK293T cells transiently overexpressing caspase-6 (Homo sapiens, UniProt Q04637) (Q04637 whole entry): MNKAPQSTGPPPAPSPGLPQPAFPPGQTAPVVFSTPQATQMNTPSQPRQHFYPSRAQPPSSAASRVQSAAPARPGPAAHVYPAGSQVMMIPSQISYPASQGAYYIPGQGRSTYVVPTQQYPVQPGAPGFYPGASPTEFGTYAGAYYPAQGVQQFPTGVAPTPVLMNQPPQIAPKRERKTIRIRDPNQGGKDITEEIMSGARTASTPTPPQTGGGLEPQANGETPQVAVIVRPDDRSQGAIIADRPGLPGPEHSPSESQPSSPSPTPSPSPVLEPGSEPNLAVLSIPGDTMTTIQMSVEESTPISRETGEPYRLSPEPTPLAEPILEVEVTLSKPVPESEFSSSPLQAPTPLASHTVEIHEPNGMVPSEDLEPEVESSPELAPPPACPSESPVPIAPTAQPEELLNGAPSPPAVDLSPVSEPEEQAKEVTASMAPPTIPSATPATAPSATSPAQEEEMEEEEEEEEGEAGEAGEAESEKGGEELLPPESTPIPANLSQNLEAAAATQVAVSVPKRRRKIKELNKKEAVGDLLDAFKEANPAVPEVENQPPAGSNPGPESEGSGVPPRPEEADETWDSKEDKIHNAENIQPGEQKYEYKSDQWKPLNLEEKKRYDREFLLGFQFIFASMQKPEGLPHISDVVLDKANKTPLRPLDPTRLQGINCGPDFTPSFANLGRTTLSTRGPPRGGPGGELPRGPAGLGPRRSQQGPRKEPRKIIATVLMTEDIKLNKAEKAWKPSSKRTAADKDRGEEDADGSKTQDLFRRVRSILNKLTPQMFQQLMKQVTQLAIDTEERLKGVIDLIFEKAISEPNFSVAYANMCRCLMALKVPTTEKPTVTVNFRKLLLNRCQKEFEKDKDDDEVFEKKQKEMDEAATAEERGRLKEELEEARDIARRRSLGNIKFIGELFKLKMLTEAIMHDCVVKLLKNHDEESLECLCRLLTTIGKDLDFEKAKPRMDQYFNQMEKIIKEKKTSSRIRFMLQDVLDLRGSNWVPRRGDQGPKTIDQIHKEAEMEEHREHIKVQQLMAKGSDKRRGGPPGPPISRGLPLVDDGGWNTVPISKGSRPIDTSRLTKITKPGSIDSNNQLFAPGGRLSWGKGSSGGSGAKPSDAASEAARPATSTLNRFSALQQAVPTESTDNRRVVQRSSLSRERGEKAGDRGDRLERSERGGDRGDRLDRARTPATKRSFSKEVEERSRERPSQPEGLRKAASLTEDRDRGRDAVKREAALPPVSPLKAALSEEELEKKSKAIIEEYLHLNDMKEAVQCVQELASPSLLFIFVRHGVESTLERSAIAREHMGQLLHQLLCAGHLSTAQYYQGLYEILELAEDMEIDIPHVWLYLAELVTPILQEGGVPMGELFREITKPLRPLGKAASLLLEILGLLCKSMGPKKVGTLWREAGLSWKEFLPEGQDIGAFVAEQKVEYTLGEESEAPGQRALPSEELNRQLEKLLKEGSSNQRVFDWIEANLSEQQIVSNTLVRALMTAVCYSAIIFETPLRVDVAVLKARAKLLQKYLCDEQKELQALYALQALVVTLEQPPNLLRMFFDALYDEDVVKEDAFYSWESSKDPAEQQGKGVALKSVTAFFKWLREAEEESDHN
The target in assay [5] is T2, proteins of HEK293T cells transiently overexpressing caspase-6 (Homo sapiens, UniProt P62258).
T2 sequence (P62258 1-255): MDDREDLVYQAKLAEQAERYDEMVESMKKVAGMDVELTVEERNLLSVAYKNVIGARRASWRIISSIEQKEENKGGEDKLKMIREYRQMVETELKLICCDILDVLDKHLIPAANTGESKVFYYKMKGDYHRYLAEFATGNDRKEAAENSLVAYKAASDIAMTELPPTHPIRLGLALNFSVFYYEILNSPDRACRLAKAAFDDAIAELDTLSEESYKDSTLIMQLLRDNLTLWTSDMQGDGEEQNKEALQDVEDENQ
The following applies: Comp; protein YWHAE P62258.

In assay [6] the target is T3, proteins of HEK293T cells transiently overexpressing caspase-6 (Homo sapiens, UniProt O60506).
T3 sequence (O60506 1-623): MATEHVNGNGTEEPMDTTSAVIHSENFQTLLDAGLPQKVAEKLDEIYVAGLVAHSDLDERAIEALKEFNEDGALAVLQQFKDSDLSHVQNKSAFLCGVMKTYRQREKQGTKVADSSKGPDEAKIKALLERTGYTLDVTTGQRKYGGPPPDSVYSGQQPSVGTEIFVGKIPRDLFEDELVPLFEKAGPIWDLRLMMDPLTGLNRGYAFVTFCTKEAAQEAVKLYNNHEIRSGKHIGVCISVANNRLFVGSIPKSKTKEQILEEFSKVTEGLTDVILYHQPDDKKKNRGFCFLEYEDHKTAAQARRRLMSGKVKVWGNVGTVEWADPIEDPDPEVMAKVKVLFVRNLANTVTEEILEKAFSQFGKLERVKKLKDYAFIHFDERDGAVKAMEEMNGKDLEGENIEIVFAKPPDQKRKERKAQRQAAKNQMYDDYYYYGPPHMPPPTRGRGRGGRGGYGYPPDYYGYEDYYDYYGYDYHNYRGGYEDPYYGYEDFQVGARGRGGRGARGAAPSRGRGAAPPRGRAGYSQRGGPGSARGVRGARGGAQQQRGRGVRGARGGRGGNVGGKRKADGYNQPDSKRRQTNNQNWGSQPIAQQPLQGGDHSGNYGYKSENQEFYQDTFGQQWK

Assay [7] addresses proteins of HEK293T cells transiently overexpressing caspase-6 (Homo sapiens, UniProt P54886). The following applies: Comp; protein ALDH18A1 P54886.
Assay [8] deals with proteins of HEK293T cells transiently overexpressing caspase-6 (Homo sapiens, UniProt P35998). To be noted: Comp; protein PSMC2 P35998.
Sequence of proteins of HEK293T cells transiently overexpressing caspase-6 (Homo sapiens, UniProt P35998) (P35998 whole entry): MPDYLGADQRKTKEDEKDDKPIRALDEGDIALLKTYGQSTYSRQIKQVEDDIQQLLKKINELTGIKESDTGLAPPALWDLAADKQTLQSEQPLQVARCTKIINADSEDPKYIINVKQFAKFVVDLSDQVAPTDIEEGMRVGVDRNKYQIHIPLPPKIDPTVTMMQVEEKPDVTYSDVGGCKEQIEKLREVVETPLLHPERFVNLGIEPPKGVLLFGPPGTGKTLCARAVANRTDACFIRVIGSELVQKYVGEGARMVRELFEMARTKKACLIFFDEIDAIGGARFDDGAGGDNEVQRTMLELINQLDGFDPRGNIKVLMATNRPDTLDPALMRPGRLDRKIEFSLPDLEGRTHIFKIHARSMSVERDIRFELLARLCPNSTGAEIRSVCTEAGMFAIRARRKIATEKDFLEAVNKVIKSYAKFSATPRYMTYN
[9] abbreviates: protein IPO5 (O00410), Exp Comp, analysis C6, p 0.0039, 9 peptides.
Setting [10] is: protein SYNCRIP (O60506), Exp Comp, analysis C6, p 0.0625, 5 peptides.

SMILES strings stand for the structures.

Sequence of proteins of HEK293T cells transiently overexpressing caspase-6 (Homo sapiens, UniProt P07437) (P07437 whole entry): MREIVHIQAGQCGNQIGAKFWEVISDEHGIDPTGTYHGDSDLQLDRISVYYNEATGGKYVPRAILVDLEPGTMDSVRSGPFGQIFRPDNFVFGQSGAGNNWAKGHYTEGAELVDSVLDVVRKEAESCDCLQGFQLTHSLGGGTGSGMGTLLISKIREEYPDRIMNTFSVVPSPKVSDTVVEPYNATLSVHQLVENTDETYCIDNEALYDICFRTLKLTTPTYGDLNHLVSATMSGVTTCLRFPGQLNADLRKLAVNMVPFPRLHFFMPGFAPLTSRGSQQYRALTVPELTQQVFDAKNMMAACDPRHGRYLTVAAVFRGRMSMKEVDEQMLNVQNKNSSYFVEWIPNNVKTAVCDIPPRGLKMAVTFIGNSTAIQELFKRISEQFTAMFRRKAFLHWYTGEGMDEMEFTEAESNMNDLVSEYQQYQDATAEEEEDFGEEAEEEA
Sequence of proteins of HEK293T cells transiently overexpressing caspase-6 (Homo sapiens, UniProt P54886) (P54886 whole entry): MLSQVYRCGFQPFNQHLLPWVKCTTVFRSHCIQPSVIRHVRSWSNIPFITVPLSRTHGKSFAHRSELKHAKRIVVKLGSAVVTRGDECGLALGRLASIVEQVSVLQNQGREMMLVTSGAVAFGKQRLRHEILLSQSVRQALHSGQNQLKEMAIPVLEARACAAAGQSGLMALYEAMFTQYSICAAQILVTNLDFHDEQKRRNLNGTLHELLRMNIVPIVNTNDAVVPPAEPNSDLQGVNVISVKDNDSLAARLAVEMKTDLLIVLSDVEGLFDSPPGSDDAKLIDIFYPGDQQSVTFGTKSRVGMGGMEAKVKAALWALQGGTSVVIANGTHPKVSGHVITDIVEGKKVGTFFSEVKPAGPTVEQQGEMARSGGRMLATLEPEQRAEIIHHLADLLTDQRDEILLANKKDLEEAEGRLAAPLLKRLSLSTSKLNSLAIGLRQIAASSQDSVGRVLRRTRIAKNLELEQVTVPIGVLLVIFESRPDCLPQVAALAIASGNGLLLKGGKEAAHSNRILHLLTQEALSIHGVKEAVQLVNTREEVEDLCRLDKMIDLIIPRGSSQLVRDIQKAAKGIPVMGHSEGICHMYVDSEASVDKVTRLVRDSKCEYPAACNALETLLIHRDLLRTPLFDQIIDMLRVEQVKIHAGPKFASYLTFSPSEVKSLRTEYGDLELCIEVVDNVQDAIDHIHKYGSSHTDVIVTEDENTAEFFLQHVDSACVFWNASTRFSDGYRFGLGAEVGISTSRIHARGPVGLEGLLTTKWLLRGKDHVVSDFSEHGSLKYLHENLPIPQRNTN

As to `C=CS(=O)(=O)N1C[C@H](C(=O)Nc2ccc(OC(F)(F)F)cc2)C[C@@H](c2ccccc2)C1` [3a], the enrich.exp.med in assay [1] (Comp, protein IPO5 O00410) was 1; in assay [2] it was 0.7909; in assay [3], 0.8512; in assay [4], 0.702; in assay [5] it was 0.6349; in assay [6] (Comp, protein SYNCRIP O60506), 1.48. In addition, the enrich.exp.med worked out at 0.7021 in assay [7] and 0.924 in assay [8]. The enrich.exp.med.lin in assay [1] (setting [9]) is 2; in assay [6] (setting [10]), 2.7903. In addition, the enrich.exp.med.log2 is given as 1 in assay [1] (setting [9]) and 1.48 in assay [6] (setting [10]).
